Assay results taken from US20100160454A1, “ANTIMICROBIAL AGENTS, COMPOSITIONS AND PRODUCTS CONTAINING THE SAME, AND METHODS OF USING THE COMPOSITIONS AND PRODUCTS” (Eastman Chemical Company, priority 2008, published 2010).

Experiments:
Assay in all cases: Microbiological challenge testing in BPW broth, graded subculture counts
Assay type in all cases: cell-based
[1] = system: Staphylococcus epidermidis ATCC 12228
Protocol: (§1) The microorganisms in the table below were used in challenge tests. They were either ATCC (American Type Culture Collection) or “wild type” as indicated. Wild type organisms were problematic organisms previously isolated from chemical products.
(§2) All of the microorganisms were grown in Tryptose Soy Broth (TSB), DIFCO™ available from Becton, Dickinson and Company, containing 1% dextrose. Candida albicans and Aspergillus niger, were incubated at 22° C.+/−2° C. for at least 96 hours. All bacteria were incubated at 35° C.+/−2° C. in a humidified incubator for at least 96 hours.
(§3) The following procedure was followed to determine the amount of each challenge material (inoculum broth) needed to produce a 10^8 CFU/mL challenge, which is equivalent to a final test-sample microbial concentration of 10^5 to 10^6 CFU/mL (CFU=colony forming units).
(§4) Using a sterile pipette, 1 mL of the growth from each TSB culture was transferred into tubes of 9 mL buffered water (pH 7.2 phosphate buffer) and mixed thoroughly. This was repeated to make serial 1:10 dilutions. Then, 0.1 mL of each sample and dilution was inoculated onto agar plates to produce the equivalent of a further 1:10 dilution. (C. albicans and A. niger were inoculated onto SABD and bacteria were inoculated onto Plate Count Agar (PCA), DIFCO™ available from Becton, Dickinson and Company.) (The normal volume plated for most samples was 0.1 mL. Some samples that could be very low in micro-organisms (high dilutions) were plated using 0.5 mL of inoculum, in order to produce reproducible counts.) The samples were distributed on the plates using the spread-plate technique. The spread-plate technique is carried out by spreading the sample over the entire plate surface using a sterile spreading rod while rotating the plate with a rotary auto-plater. After the inoculum was absorbed completely by the agar, each plate was inverted and incubated (fungi at 22° C.+/−2° C. and bacteria at 35° C.+/−2° C.).
(§5) After incubation for at least 48 hours, colonies that had developed on the agar plates were counted (CFU) and recorded with the corresponding dilution. If counting had to be delayed temporarily, plates were refrigerated, preferably no more than 24 hours, until they could be counted. The number of CFU/mL was determined by multiplying the plate count by the dilution factor of the plate counted.
(§6) Turbidity in Nepholemetric Turbidity Units (NTU) was measured for each serial dilution using the HF-Micro 100 Model Turbidimeter. For each microorganism, the plate counts were compared to the turbidity readings.
(§7) Control substrates (“broth alone”) were prepared for each microorganism separately in triplicate by adding 13.5 mL of Buffered Peptone Water broth (BPW) containing 1% dextrose to each 20-mL glass tube, then adding 1.5 mL challenge material to produce a final concentration at time zero of 10^5 to 10^6 CFU/mL and a total volume of 15 mL.
(§8) Test sample substrates were prepared containing each test material listed below at the concentrations shown for challenge testing with each microorganism separately. Sample substrates were prepared in triplicate, except the substrates containing butoxyethanol which were prepared in duplicate. Substrates were prepared by adding BPW containing 1% dextrose to each 20-mL glass tube, then adding the test material in the amount appropriate to achieve the desired weight/volume percent and to achieve a total volume of BPW plus dextrose plus test material of 13.5 mL. Then 1.5 mL challenge material was added to produce a final concentration at time zero of 10^5 to 10^6 CFU/mL and a total test sample substrate volume of 15 mL.

Aeromonas sp. Wild type = system: Aeromonas sp. Wild type
Protocol: as §1, §2, §3, §4, §5, §6, §7, §8

[2] = system: Burkholderia cepacia Wild type; details: B. cepacia
Protocol: as §1, §2, §3, §4, §5, §6, §7, §8

[3] = system: Pseudomonas aeruginosa Wild type; details: P. aeruginosa
Protocol: as §1, §2, §3, §4, §5, §6, §7, §8

## O=C([O-])CN(CCN(CC(=O)[O-])CC(=O)O)CC(=O)O.[Na+].[Na+] [EDTA, Na2EDTA]
[1]; 2.5% weight/volume
  S. epidermidis growth grade, 3 day: 0
  S. epidermidis growth grade, 13 day: 0
  S. epidermidis growth grade, 30 day: 0
[1]; 5.0% weight/volume
  S. epidermidis growth grade, 3 day: 0
  S. epidermidis growth grade, 13 day: 0
  S. epidermidis growth grade, 30 day: 0
Aeromonas sp. Wild type; 0.5% weight/volume
  Aeromonas sp growth grade, 3 day: 5 (More than 10,000 colonies estimated (thus more than 100,000 CFU/mL))
  Aeromonas sp growth grade, 14 day: 4 (1000 to 10,000 colonies countable (thus 10,000 CFU/mL to 100,000 CFU/mL))
  Aeromonas sp growth grade, 30 day: 4 (1000 to 10,000 colonies countable (thus 10,000 CFU/mL to 100,000 CFU/mL))
Aeromonas sp. Wild type; 1.25% weight/volume
  Aeromonas sp growth grade, 3 day: 4 (1000 to 10,000 colonies countable (thus 10,000 CFU/mL to 100,000 CFU/mL))
  Aeromonas sp growth grade, 14 day: 4 (1000 to 10,000 colonies countable (thus 10,000 CFU/mL to 100,000 CFU/mL))
  Aeromonas sp growth grade, 30 day: 4 (1000 to 10,000 colonies countable (thus 10,000 CFU/mL to 100,000 CFU/mL))
Aeromonas sp. Wild type; 2.5% weight/volume
  Aeromonas sp growth grade, 3 day: 3 (100 to 1000 colonies (thus 1000 to 10,000 CFU/mL))
  Aeromonas sp growth grade, 14 day: 2 (52 to 100 colonies counted (thus 520 to 1000 CFU/mL))
  Aeromonas sp growth grade, 30 day: 1 (0 to 51 colonies counted (thus 10 to 510 CFU/mL based on 0.1-mL sample))
Aeromonas sp. Wild type; 5.0% weight/volume
  Aeromonas sp growth grade, 3 day: 1 (0 to 51 colonies counted (thus 10 to 510 CFU/mL based on 0.1-mL sample))
  Aeromonas sp growth grade, 14 day: 0
  Aeromonas sp growth grade, 30 day: 0
[2]; 0.5% (wt/vol), 3 day
  Grade: 4 (1000 to 10,000 colonies countable (thus 10,000 CFU/mL to 100,000 CFU/mL))
[2]; 0.5% (wt/vol), 14 day
  Grade: 4 (1000 to 10,000 colonies countable (thus 10,000 CFU/mL to 100,000 CFU/mL))
[2]; 0.5% (wt/vol), 30 day
  Grade: 4 (1000 to 10,000 colonies countable (thus 10,000 CFU/mL to 100,000 CFU/mL))
[2]; 1.25% (wt/vol), 3 day
  Grade: 3 (100 to 1000 colonies (thus 1000 to 10,000 CFU/mL))
[2]; 1.25% (wt/vol), 14 day
  Grade: 2 (52 to 100 colonies counted (thus 520 to 1000 CFU/mL))
[2]; 1.25% (wt/vol), 30 day
  Grade: 2 (52 to 100 colonies counted (thus 520 to 1000 CFU/mL))
[2]; 2.5% (wt/vol), 3 day
  Grade: 1 (0 to 51 colonies counted (thus 10 to 510 CFU/mL based on 0.1-mL sample))
[2]; 2.5% (wt/vol), 14 day
  Grade: 0
[2]; 2.5% (wt/vol), 30 day
  Grade: 0
[2]; 5.0% (wt/vol), 3 day
  Grade: 0
[2]; 5.0% (wt/vol), 14 day
  Grade: 0
[2]; 5.0% (wt/vol), 30 day
  Grade: 0
[3]; 0.5% (wt/vol), 3 day
  Grade: 4 (1000 to 10,000 colonies countable (thus 10,000 CFU/mL to 100,000 CFU/mL))
[3]; 0.5% (wt/vol), 13 day
  Grade: 4 (1000 to 10,000 colonies countable (thus 10,000 CFU/mL to 100,000 CFU/mL))
[3]; 0.5% (wt/vol), 30 day
  Grade: 4 (1000 to 10,000 colonies countable (thus 10,000 CFU/mL to 100,000 CFU/mL))
[3]; 1.25% (wt/vol), 3 day
  Grade: 4 (1000 to 10,000 colonies countable (thus 10,000 CFU/mL to 100,000 CFU/mL))
[3]; 1.25% (wt/vol), 13 day
  Grade: 4 (1000 to 10,000 colonies countable (thus 10,000 CFU/mL to 100,000 CFU/mL))
[3]; 1.25% (wt/vol), 30 day
  Grade: 4 (1000 to 10,000 colonies countable (thus 10,000 CFU/mL to 100,000 CFU/mL))
[3]; 2.5% (wt/vol), 3 day
  Grade: 4 (1000 to 10,000 colonies countable (thus 10,000 CFU/mL to 100,000 CFU/mL))
[3]; 2.5% (wt/vol), 13 day
  Grade: 3 (100 to 1000 colonies (thus 1000 to 10,000 CFU/mL))
[3]; 2.5% (wt/vol), 30 day
  Grade: 4 (1000 to 10,000 colonies countable (thus 10,000 CFU/mL to 100,000 CFU/mL))
[3]; 5.0% (wt/vol), 3 day
  Grade: 0
[3]; 5.0% (wt/vol), 13 day
  Grade: 0
[3]; 5.0% (wt/vol), 30 day
  Grade: 0
